# Experiments:
# [1] = Cytotoxicity to HepG2.2.15 cells (MTT method); format: cell-based; details: human, HepG2.2.15 cells (HBV-transgenic human hepatoma cells), 50% death concentration, eighth day
# Text: (§1) Hepatitis B virus (HBV) transgenic human hepatoma carcinoma cell, HepG2.2.15 cell line, can secrete hepatitis B virus particles (containing antigen and DNA) into supernatant when being cultured.
# (§2) Under action of antiviral drugs, the contents of HBsAg, HBeAg and viral DNA secreted from cells into the supernatant were detected and are compared with the contents of control groups without drugs, so that the antiviral activity of the compounds of the present invention can be measured as well as the cytotoxic effect of compounds of the present invention. The value concentration of the compounds of the present invention which caused 50% of cells dead and was measured with MTT method was CC50; and the value concentration of the compounds of the present invention which inhibited the secretion of HBsAg and HBeAg detected by ELISA method and inhibited 50% of viral DNA replication detected by fluorescent quantification PCR method was IC50.
# (§3) HepG2.2.15 cells were inoculated on a 96-well plate, and the compounds of the present invention were added next day. The medium and the compound solutions of the same concentration were renewed periodically. The culture supernatants were collected on the eighth day to be detected. MTT was added to the cells on the 96-well plate, and MTT dissolving liquid was added after 4 hours to be reacted overnight. OD570 was measured next day on microplate reader. And the cytotoxicity of the compounds of the present invention to the HepG2.2.15 cells, the effect of the compounds of the present invention on the growth of the cells, and the concentration of the compound of the present invention (CC50) causing 50% of the cells dead were estimated according to the OD values.
# hepatitis B virus (HBV) = assay: HBV-DNA replication in HepG2.2.15 culture supernatant (fluorescent quantification PCR); format: cell-based; details: for IC50: Hepatitis B virus, HepG2.2.15 supernatant, eighth day, fluorescent quantification PCR, read-out: DNA replication IC50; for DNA replication IC12: ICX: concentration with 12% inhibition of HBV-DNA replication
# Text: as §1, §2, §3
# A suitable amount of culture supernatant was added into a same volume of virus extract solution, and was boiled after mixed uniformly, then centrifuged at 10000 rpm for 5 min under room temperature. A suitable amount of supernatant was collected for PCR amplification. Five HBV-DNA standard samples were used to set a standard curve. According to the obtained viral DNA replication value, the inhibition rates of HBV-DNA replication of the compound of the present invention at different concentrations were calculated, and then the half inhibition rates of the compounds were calculated to obtain IC50. For the samples that can not be calculated for IC50 value, they can be represented by ICX and given the corresponding concentration values.
SMILES,CC50 [1] [µM],IC50 (hepatitis B virus (HBV)) [µM],also measured
CCOC(=O)c1nc(-c2nccs2)oc1C1CCCCC1 [Compound C306],> 100,0.8,
CCOC(=O)c1nc(-c2nccs2)[nH]c1C1CCC1 [Compound C277],> 100,3.1,
CCCCc1oc(-c2cccs2)nc1C(=O)OCC [Compound C279-2],71.8,51.9,
CC(C)Cc1sc(-c2nccs2)nc1C(N)=O [Compound C267],,,"DNA replication IC89 (hepatitis B virus (HBV); ICX: concentration with 89% inhibition of HBV-DNA replication, IC50 not calculable): IC89 = 33 uM"
CCOC(=O)c1nc(-c2cccs2)[nH]c1C1CCCCC1 [Compound C304],> 100,4.5,
CCOC(=O)c1nc(-c2cccs2)oc1CC(C)C [Compound C279-3],> 100,,
CCOC(=O)c1nc(-c2cccs2)[nH]c1C1CC1 [Compound C262],34.4,4.3,
CCCc1ccc(-c2nc(C(=O)OCC)c(CC(C)C)o2)s1 [Compound C321-3],80,,"DNA replication IC27 (hepatitis B virus (HBV); ICX: concentration with 27% inhibition of HBV-DNA replication, IC50 not calculable): IC27 = 1.23 uM"
CCOC(=O)c1nc(-c2cc3ccccc3s2)[nH]c1CC(C)C [Compound C328],> 7.5,0.19,
CNC(=O)c1nc(-c2nccs2)sc1CC(C)C [Compound C281],,,"DNA replication IC94 (hepatitis B virus (HBV); ICX: concentration with 94% inhibition of HBV-DNA replication, IC50 not calculable): IC94 = 33 uM"
CCOC(=O)c1nc(-c2ccc(C)s2)[nH]c1CC(C)C [Compound C292],139,4.65,
CC(C)Cc1sc(-c2nccs2)nc1C(=O)Nc1ccccc1 [Compound C343],,,"DNA replication IC19 (hepatitis B virus (HBV); ICX: concentration with 19% inhibition of HBV-DNA replication, IC50 not calculable): IC19 = 1.23 uM"
CCOC(=O)c1nc(-c2nccs2)[nH]c1C1CCCC1 [Compound C291],> 100,5.5,
CCOC(=O)c1nc(-c2nc(CC)cs2)sc1CC(C)C [Compound C324-2],> 100,0.14,
CCCCc1sc(-c2cccs2)nc1C(=O)OCC [Compound C295-1],50,11.7,
CCOC(=O)c1nc(-c2ccc(C)s2)sc1CC(C)C [Compound C309],> 100,,"DNA replication IC14.2 (hepatitis B virus (HBV); ICX: concentration with 14.2% inhibition of HBV-DNA replication, IC50 not calculable): IC14.2 = 0.39 uM"
CCOC(=O)c1nc(-c2nccs2)[nH]c1C1CC1 [Compound C263-1],> 100,3.7,

SMILES,CC50 [1] [µM],IC50 (hepatitis B virus (HBV)) [µM],also measured
CCOC(=O)c1nc(-c2nc3cc(OC)ccc3s2)sc1CC(C)C [Compound C376],127,23,
CCOC(=O)c1nc(-c2ccc(C)s2)oc1CC(C)C [Compound C293],80,126,
CCOc1cnc(-c2oc(-c3cccs3)nc2C(=O)c2ccccc2)o1 [Compound C352],> 33.3,8.3,
CCOC(=O)c1nc(-c2cccs2)oc1C1CCCCC1 [Compound C305-1],> 100,2.6,
CCOC(=O)c1nc(-c2cc3ccccc3[nH]2)[nH]c1CC(C)C [Compound C311-2],3.5,0.07,
c1ccc(-c2cnc(-c3cccs3)s2)cc1 [Compound C243],84.5,0.41,
CCOC(=O)c1nc(-c2ncc(C)s2)sc1CC(C)C [Compound C310],> 100,0.14,
CCOC(=O)c1nc(-c2nccs2)[nH]c1C1CCCCC1 [Compound C305-2],> 100,4.1,
CCCc1ccc(-c2nc(C(=O)OCC)c(CC(C)C)s2)s1 [Compound C337],60,,
CCCCc1sc(-c2nccs2)nc1C(=O)OCC [Compound C296-2],> 100,,DNA replication IC12 (hepatitis B virus (HBV); IC50 not calculable): IC12 = 0.41 uM
c1ccc(-c2cnc(-c3cccs3)[nH]2)cc1 [Compound C226],53.2,2.3,
CCCCc1oc(-c2ccc(CCC)s2)nc1C(=O)OCC [Compound C321-1],80,5.86,
CC(C)Cc1sc(-c2nccs2)nc1C(=O)N(C)C [Compound C295-3],,,DNA replication IC12 (hepatitis B virus (HBV); IC50 not calculable): IC12 = 1.23 uM
CCOC(=O)c1nc(-c2cc3ccccc3[nH]2)sc1CC(C)C [Compound C328-2],21.7,,
CCOC(=O)c1nc(-c2cccs2)[nH]c1/C=C/c1ccccc1 [Compound C324],61,,
CCOC(=O)c1nc(-c2nccs2)oc1CC(C)C [Compound C280-1],> 100,,
